{"source": "patent US8754190B2", "about": "“Controlled release from macromolecular conjugates” (Prolynx LLC, priority 2010, dated 2014)", "key": {"[1]": {"conditions": "pH 7.4"}, "[2]": {"assay": "Hydrolysis of carbamate in 50% human serum", "format": "in vitro ADME", "conditions": "after 1 week at 37° C.", "source_text": "In general, compared to C—H, a) electron withdrawing groups at the beta position increase the rate; b) alkyl groups at the alpha position increase the rate; and c) aryl moieties at the alpha position decrease the rate."}, "[3]": {"assay": "Release of Nε-2,4-dinitrophenyl-L-lysine from model linker carbamates (β-eliminative cleavage), HPLC", "format": "physicochemical", "conditions": "after 5 days at 37° C. and pH 7.4; no observable release, below estimated detection limit", "experimental": "A series of model linker scaffolds having a range of functional groups as potential pKa modulators (substituted aromatics, ketones, nitriles, sulfones) were designed, prepared and linked via carbamate bonds to Ne-2,4-dinitrophenyl-L-lysine (Ne-DNP-Lys) for evaluation of release rates. DNP-Lys was chosen as the released moiety as it is water soluble and is a strong chromophore to permit HPLC-UV analysis.\nThe rates of release of Nε-2,4-dinitrophenyl-L-lysine from these compounds were determined at pH 7.4 or pH 8.3, 37° C., by HPLC analysis. Kinetic analyses of the release reactions were performed by HPLC (C18; linear methanol/water+0.5% HOAc gradient) using a UV/vis monitor at 350 nm. The areas under the Lys(DNP) (“P”) and starting material (“S”) peaks were integrated to determine extent of reaction (“R”) as R=P/(S+P). Reaction rates were calculated from the slope the line obtained by linear regression analysis of a plot of ln(1−R) versus time."}, "[4]": {"conditions": "pH 7.4", "remark": "listed apart in the source", "method": "Kinetics for release of N-(6-(2,4-dinitrophenyl)aminohexanoyl)-serine from O—(N-(9-fluorenylmethoxycarbonyl-N-phenyl)aminomethyl)-serine in 0.1 M HEPES buffer, 15 mM NaCl, pH 7.40, 37° C. are shown in FIG. 4."}}, "data": [{"smiles": "O=C(O)[C@H](CSCN(C(=O)OCC1c2ccccc2-c2ccccc21)c1ccccc1)Nc1ccc([N+](=O)[O-])cc1[N+](=O)[O-]", "note": "[Example 11C, S—(N-(9-Fluorenylmethoxycarbonyl-N-Phenylamino)Methyl)N-(2,4-Dinitrophenyl)-Cysteine]", "values": [{"measurement": "T1/2 of release of N-(2,4-dinitrophenyl)-cysteine", "setting": "[1]", "result": 4.17, "unit": "days"}]}, {"smiles": "O=C(N[C@@H](CCCCNc1ccc([N+](=O)[O-])cc1[N+](=O)[O-])C(=O)O)OCc1ccccc1", "note": "[O-benzyl-N—(Nε-2,4-dinitrophenyl-L-lysine)-carbamate]", "values": [{"measurement": "hydrolysis in 50% human serum", "setting": "[2]", "result": "no detectable hydrolysis"}, {"measurement": "release of Nε-2,4-dinitrophenyl-L-lysine (cleavage)", "setting": "[3]", "result": "< 0.25", "unit": "%"}]}, {"smiles": "O=C(CCCCCNc1ccc([N+](=O)[O-])cc1[N+](=O)[O-])N[C@@H](COCN(C(=O)OCC1c2ccccc2-c2ccccc21)c1ccccc1)C(=O)O", "note": "[Example 11B]", "values": [{"measurement": "T1/2 of release of N-(6-(2,4-dinitrophenyl)aminohexanoyl)-serine", "setting": "[4]", "result": 16.7, "unit": "days"}]}]}
